Measurements from US20060172423A1, “New expression system from rhodococcus” (priority 2002, published 2006).
Where two headings read alike, the source gives them in different places.

Tests used:
[1] = tested on: repressor-promoter system of the KstD gene; experiment: steroid induction of KSTD activity in cell free extracts (DCPIP as electron acceptor, AD as substrate), SQ1; format: cell-based, Rhodococcus erythropolis SQ1
Method: 4-androstene-3,17-dione (AD) induction served as a positive control.
From induced cultures, cell free extracts were prepared as indicated above and tested for KSTD activity using DCPIP as an electron acceptor and AD as a substrate.
(§1) Further, it was investigated whether KSTD1 was constitutively expressed in R. erythropolis RG10. Cell free extracts were prepared from an AD-induced cell culture and from a non-induced cell culture. These extracts were tested for KSTD activity using DCPIP as an electron acceptor and AD as a substrate. For reasons of comparison, the same procedure was performed with R. erythropolis SQ1.

[2] = tested on: KSTD activity; experiment: KSTD activity in cell free extracts (DCPIP as electron acceptor, AD as substrate), RG10; format: cell-based, Rhodococcus erythropolis RG10; settings: cell free extract of AD-induced culture
Method: as §1

[3] = tested on: KSTD activity; settings: gene disruption mutant SDH420; cited from earlier work

SMILES: C[C@@H]1CC2=CC(=O)CC[C@@H]2[C@H]2CC[C@]3(C)C(=O)CC[C@H]3[C@@H]21 [7α-methyl-nordione]
- lifting of kstD promoter repression exerted by the kstR gene product ([1]; addition of steroid compound): able to lift kstD promotor repression

SMILES: C[C@]12CCC(=O)C=C1CC[C@H]1[C@@H]3CCC(=O)[C@@]3(C)CC[C@@]12O [9OHAD, 9α-hydroxy-4-androstene-3,17-dione]
- lifting of kstD promoter repression exerted by the kstR gene product [1]: able to lift kstD promotor repression

SMILES: C=C1C[C@]2(C)C(=O)CC[C@H]2[C@@H]2CCC3=CC(=O)CC[C@@H]3[C@@H]12 [11-methylene-nordione]
- lifting of kstD promoter repression exerted by the kstR gene product ([1]; addition of steroid compound): able to lift kstD promotor repression

SMILES: C[C@]12CC[C@H]3C(=CCC4=CC(=O)CC[C@@]43CO)[C@@H]1CCC2=O [19-OH-7-dehydro-androstene-3,17-dione]
- lifting of kstD promoter repression exerted by the kstR gene product ([1]; addition of steroid compound): able to lift kstD promotor repression

SMILES: C[C@]12CCC(=O)C=C1CC[C@@H]1[C@@H]2CC[C@]2(C)C(=O)CC[C@@H]12 [AD, 4-androstene-3,17-dione]
- KSTD activity in R. erythropolis RG10 [2]: present
- lifting of kstD promoter repression exerted by the kstR gene product ([1]; addition of steroid compound): able to lift kstD promotor repression
- induction of KSTD activity in R. erythropolis SQ1 ([1]; cell free extracts of induced cultures, DCPIP electron acceptor, AD substrate): detected
- induction of wild-type KSTD activity in R. erythropolis SDH420 [3]: can be induced

SMILES: C[C@]12C=CC(=O)C=C1CC[C@@H]1[C@@H]2CC[C@]2(C)C(=O)CC[C@@H]12 [ADD, 1,4-androstadiene-3,17-dione]
- lifting of kstD promoter repression exerted by the kstR gene product ([1]; addition of steroid compound): able to lift kstD promotor repression

SMILES: C[C@]12CC[C@H]3[C@@H](CCC4=CC(=O)CC[C@@H]43)[C@@H]1CCC2=O [estr-4-ene-3,17-dione]
- lifting of kstD promoter repression exerted by the kstR gene product ([1]; addition of steroid compound): able to lift kstD promotor repression

SMILES: CC(=O)[C@H]1CC[C@H]2[C@@H]3CC=C4C[C@@H](O)CC[C@]4(C)[C@H]3CC[C@]12C [pregnenolone]
- lifting of kstD promoter repression exerted by the kstR gene product ([1]; addition of steroid compound): able to lift kstD promotor repression

SMILES: CC(=O)[C@H]1CC[C@H]2[C@@H]3CCC4=CC(=O)CC[C@]4(C)[C@H]3CC[C@]12C [progesterone]
- lifting of kstD promoter repression exerted by the kstR gene product ([1]; addition of steroid compound): able to lift kstD promotor repression

SMILES: C[C@]12CCC(=O)C[C@@H]1CC[C@@H]1[C@@H]2CC[C@]2(C)[C@@H](O)CC[C@@H]12 [stanolone, 17β-OH-5α-androstane-3-on]
- lifting of kstD promoter repression exerted by the kstR gene product [1]: able to lift kstD promotor repression

SMILES: C[C@]12CC[C@H]3[C@@H](CCC4=CC(=O)CC[C@@]43C)[C@@H]1CC[C@@H]2O [testosterone]
- lifting of kstD promoter repression exerted by the kstR gene product [1]: able to lift kstD promotor repression
